This is an account of results in article PMC4628118 (Frontiers in Microbiology, 2015).

What all share (assay): biochemical
Test [1] concerns drug-resistant HIV-1 PR (PR02-A) harboring L10I/G48S/I54V/V82F/L90M mutations. The settings on record: IC50 of drug-resistant PR divided by IC50 of WT PR. As to the method: (§1) In vitro transcription and cell-free protein synthesis were performed using WEPRO7240 wheat germ extract (CellFree Sciences, Yokohama, Japan). Transcription was performed using SP6 RNA polymerase, as described previously ([Matsunaga et al., 2014]). The translation reaction was performed in bilayer mode with slight modifications. Briefly, translation mixture (forming the bottom layer) consisted of 10 μl of each mRNA (usually 30–35 μg), 10 μl of WEPRO7240 (CellFree Sciences, Yokohama, Japan), and 0.8 μl of 1 μg/μl creatine kinase (Roche Diagnostics K. K., Tokyo, Japan) in 20.8 μl of SUB-AMIX® (CellFree Sciences, Yokohama, Japan). SUB-AMIX (206 μl) was placed on top of the translation mixture, thus forming the top layer. After incubation at 16°C for 16 h, synthesized proteins were confirmed by immunoblotting. For biotinylation of the substrate, 1 μl (50 ng) of crude biotin ligase (BirA) expressed in a wheat germ cell-free system was added to the bottom layer, and 0.5 μM (final concentration) of D-biotin (Nacalai Tesque, Inc., Kyoto, Japan) was added to both the top and bottom layers, as described previously ([Matsuoka et al., 2010]). As an initial experimental test, radiolabeled protein was produced by cell-free synthesis to confirm the yield and solubility of generated proteins as described previously ([Kamura et al., 2005]). In actual drug susceptibility testing, quantitations of synthesized HIV-1 PR proteins were performed by densitometric scanning of Coomassie Brilliant Blue (CBB)-stained bands as compared with purified HIV-1 PR or bovine serum albumin (BSA) ([Madin et al., 2000]).
(§2) CFDSA was performed using cell-free–synthesized PR, substrate peptide, and the AlphaScreen® system (PerkinElmer, Boston, MA, USA). […] The mixture was incubated at 37°C for 30 min in a 384-well Alphaplate (PerkinElmer). The enzymatic reaction was initiated by the addition of 5 μl of 0.25 μM cell-free–synthesized GST-p2/p7-bls substrate to each well, followed by incubation at 37°C for 2 h. Detection of PR activity was performed essentially as described in the AlphaScreen IgG detection kit instruction manual (PerkinElmer). Briefly, 10 μl of detection mixture containing 20 mM Tris-HCl (pH 7.5), 0.2 mM DTT, 5 mM MgCl2, 5 μg/ml anti-GST antibody, 1 mg/ml BSA, 0.1 μl streptavidin-coated donor beads, and 0.1 μl anti-IgG acceptor beads were added to each well of the 384-well plate, followed by incubation at 23°C for 1 h in the dark. Luminescence signals were analyzed with the AlphaScreen detection program using the EnSpire software (PerkinElmer), and light intensities in the presence of the serially diluted inhibitors were used to calculate their IC50 values. PI-resistance levels were determined by comparing the IC50 values of drug-resistant PR with those of NL4-3 PR. The results for each PR were normalized based on protein productivity, as determined by liquid scintillation counting. IC50 values were calculated using XLfit (ID BUSINESS SOLUTIONS, Guildford, UK). The criteria for CFDSA measurement of resistance were as follows: fold resistance value (FRV) = IC50 ratio of test PR/IC50 ratio of WT PR.
(§3) For the quantitative and high-throughput measurement of HIV-1 PR activity using AlphaScreen technology, we designed a reporter substrate comprising a partial Gag p2-p7 junction peptide flanked by N-terminal GST and C-terminal biotin binding sequence (GST-p2/p7-biotin) as described in Figure 2A.

The target of the next test is WT HIV-1 PR (NL4-3) (Human immunodeficiency virus type 1 group M subtype B, UniProt P12497). On the procedure:
as §1, §2, §3

Test [2] addresses drug-resistant HIV-1 PR (PR02-A) harboring L10I/G48S/I54V/V82F/L90M mutations (Human immunodeficiency virus type 1 group M subtype B, UniProt P12497, G536S/I542V/L498I/L578M/V570F). On the procedure: as §1, §2, §3

SMILES strings stand for the structures.

For the compound `CC(C)CN(C[C@@H](O)[C@H](Cc1ccccc1)NC(=O)O[C@H]1CCOC1)S(=O)(=O)c1ccc(N)cc1` [APV, amprenavir], in test [1], the “fold-resistance to WT PR (FRV, DR/WT)” value was 4.0 fold. The results for the IC50 (against WT HIV-1 PR (NL4-3); in test [2]) were 23.2 nM and 93.5 nM, respectively.
The corresponding values for `COC(=O)N[C@H](C(=O)N[C@@H](Cc1ccccc1)[C@@H](O)CN(Cc1ccc(-c2ccccn2)cc1)NC(=O)[C@@H](NC(=O)OC)C(C)(C)C)C(C)(C)C` [ATV, atazanavir] are 7.7 fold, 17.8 nM and 137 nM.
